± gives the expanded uncertainty stated by the source.
Tests used:
[1] = Liquid; for mass density: 298.15 K, 101.33 kPa
[2] = refractive index (Na D-line) (dimensionless); conditions: 298.15 K; 101.33 kPa; Liquid; Standard Abbe refractometry

CC(C)CO [2-methyl-1-propanol]
Conditions | mass density [kg/m3] | refractive index
[1] | 797.83 ± 0.61 | –
[2] | – | 1.3937 ± 0.0007

CC(=O)OCC(C)C [2-methylpropyl ethanoate]
Conditions | mass density [kg/m3] | refractive index
[1] | 866.12 ± 0.62 | –
[2] | – | 1.3876 ± 0.0008

CN(C)C=O [dimethylformamide]
Conditions | mass density [kg/m3] | refractive index
[1] | 948.72 ± 0.27 | –
[2] | – | 1.4265 ± 0.0007

[1]
Conditions | vapor or sublimation pressure [kPa]
345.45 K | 6.3 ± 0.23
350.38 K | 7.81 ± 0.23
354.51 K | 9.27 ± 0.24
359.05 K | 11.16 ± 0.24
362.74 K | 12.93 ± 0.24
366.7 K | 15.07 ± 0.24
370.69 K | 17.53 ± 0.24
374.89 K | 20.48 ± 0.24
379.24 K | 23.95 ± 0.24
382.97 K | 27.32 ± 0.25
386.75 K | 31.1 ± 0.25
390.07 K | 34.78 ± 0.25
393.2 K | 38.56 ± 0.26
396.61 K | 43.04 ± 0.26
399.91 K | 47.82 ± 0.26
403.1 K | 52.73 ± 0.27
405.94 K | 57.53 ± 0.27
408.79 K | 62.66 ± 0.27
411.23 K | 67.37 ± 0.28
413.35 K | 71.68 ± 0.28
415.66 K | 76.65 ± 0.29
417.84 K | 81.58 ± 0.29
419.86 K | 86.33 ± 0.29
421.87 K | 91.37 ± 0.3
423.7 K | 96.06 ± 0.3
425.6 K | 101.2 ± 0.31

Source: the NIST ThermoML archive (doi:10.1016/j.fluid.2005.03.014)
